Measurements: publication PMC8568133, “Evaluation of bisphenylthiazoles as a promising class for combating multidrug-resistant fungal infections” (PLoS ONE, 2021)
Converted amounts (≈) assume the structure as drawn. Where two headings read alike, the source gives them in different places.

Assays:
MRSA USA300 = experiment: Broth microdilution MIC, initial antibacterial screening; type: cell-based, S. aureus; settings: Staphylococcus aureus; MRSA USA300; read-out: MIC
Summary of the method: (§1)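 Broth microdilution per CLSI with ~5 × 10^5 CFU/mL inoculum and serially diluted compounds. S. aureus and E. coli were tested in CAMHB, aerobic, 37 °C, 18–20 h; C. difficile in supplemented brain heart infusion broth (yeast extract, hemin, vitamin K), anaerobic, 37 °C, 48 h. MIC read as visible growth.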

[1] = tested on: C. difficile ATCC BAA1870; experiment: Broth microdilution MIC, initial antibacterial screening (anaerobic); type: cell-based, Clostridioides difficile; settings: Clostridioides difficile, ATCCBAA1870, read-out: MIC
Summary of the method: as §1

[2] = tested on: E. coli JW55031 (tolC-mutant); experiment: microbe, parasite or virus in culture; type: cell-based, Escherichia coli; settings: Escherichia coli
Summary of the method: as §1

[3] = tested on: E. coli BW25113 (wild-type); experiment: Broth microdilution MIC, initial antibacterial screening; type: cell-based, Escherichia coli; settings: Escherichia coli, read-out: MIC
Summary of the method: as §1

[4] = tested on: Lactobacillus casei ATCC-334; experiment: Broth microdilution MIC against normal human microbiota; type: cell-based; settings: Lacticaseibacillus casei, ATCC334; Lactobacillus casei ATCC-334; read-out: MIC
Experimental: (§2) Broth microdilution was utilized to determine the activity of bisphenylthiazoles against the human gut microflora as described elsewhere. A bacterial solution equivalent to 0.5 McFarland standards was prepared and diluted in MRS broth to achieve a bacterial concentration of approximately 5 x 10^5 CFU/mL. Then, compounds/control antifungals (in triplicates), were added to the plates and serially diluted with media containing bacteria. The plates were incubated for 48 hours at 37 °C before recording the MIC values. The experiment was repeated three independent times.

[5] = tested on: Lactobacillus crispatus HM-370; experiment: as above; type: cell-based; settings: HM370; Lactobacillus crispatus HM-370; read-out: MIC
Experimental: as §2

[6] = tested on: Lactobacillus gasseri HM-400; experiment: as above; type: cell-based; settings: HM400; Lactobacillus gasseri HM-400; read-out: MIC
Experimental: as §2

Cryptococcus neoformans = experiment: Antifungal broth microdilution MIC (50% growth inhibition, 48 h); type: cell-based; settings: Cryptococcus neoformans, read-out: MIC
Experimental: (§3) Serial dilutions (from 128 μg/mL to 0.06 μg/mL) of the tested compounds and control drugs (fluconazole, itraconazole and amphotericin) (in triplicates), were screened against clinical isolates of Candida albicans, Candida auris, Candida glabrata, Candida parapsilosis, Candida tropicalis, Candida krusei, Cryptococcus neoformans, Cryptococcus gattii and Aspergillus fumigatus species using the broth microdilution method according to the Clinical and Laboratory Standards Institute guidelines. MICs were determined as the lowest concentration of the compounds that inhibited the fungal growth by 50% after incubation at 35 °C for 24 h (for Candida and Aspergillus), or 48 h (for Cryptococcus). The minimum fungicidal concentration (MFC) of these compounds was tested by plating 4 μL from wells with no growth onto YPD agar plates. The plates were incubated at 37 °C for 24 hours before recording the MFC, which was categorized as the lowest concentration that reduced fungal growth by 99.9% [45]. The experiment was repeated three independent times.

Aspergillus fumigatus = experiment: Antifungal broth microdilution MIC (50% growth inhibition); type: cell-based; settings: Aspergillus fumigatus
Summary of the method: (§4)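 CLSI broth microdilution, 128 to 0.06 μg/mL in triplicate, on clinical isolates; MIC is lowest concentration giving 50% growth inhibition after 24 h (Candida) or 48 h (Cryptococcus) at 35 °C. MFC: no-growth wells plated on YPD agar, 24 h at 37 °C, 99.9% reduction; three independent repeats.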

Candida parapsilosis = experiment: as above; type: cell-based; settings: Lodderomyces parapsilosis, read-out: MIC
Summary of the method: as §4

Candida strains = experiment: Minimum fungicidal concentration, summary over Candida strains; type: cell-based; settings: strains of Table 6
Experimental: as §3

[7] = tested on: human colorectal cells (Caco-2); experiment: In vitro cytotoxicity, MTS assay; settings: human, 24 h
Experimental: (§5) Fig 2 In vitro cytotoxicity assay of bisphenylthiazole compounds 7, 16 and 17 (tested in triplicates at 32, 64 and 128 μg/mL) against: A) human colorectal cells (Caco-2), and B) monkey kidney epithelial cells (Vero) after 24-hours exposure time, using the MTS 3-(4,5-dimethylthiazol-2-yl)-5-(3-carboxymethoxyphenyl)-2-(4-sulfophenyl)-2H-tetrazolium) assay. The data represent the percentage of viable Caco-2 or Vero cells measured as the average absorbance relative to DMSO after exposure to the tested compounds. Dimethyl sulfoxide (DMSO) was used as a negative control. Error bars represent the standard deviation values.
(§6) To explore the tolerability of bisphenylthiazoles, their cytotoxicity profile was assessed in human colorectal adenocarcinoma (Caco-2) and monkey kidney epithelial cells (Vero) as described earlier. Briefly, compounds were incubated with the cells for 24 hours. Then, cells were incubated with MTS reagent for 3 hours before measuring the absorbance values (OD490). The experiment was repeated in two independent times.

[8] = tested on: monkey kidney epithelial cells (Vero); experiment: In vitro cytotoxicity, MTS assay
Experimental: as §5, §6

Candida auris = experiment: Checkerboard assay of compound 17 with standard antifungals; type: cell-based; settings: for MIC: Candidozyma auris, checkerboard, agent alone

Cc1nc(-c2ccc(-c3ccccc3)cc2)sc1-c1nnc(N[C@@H]2CCCC[C@@H]2N)o1 (relative stereo) [Compound 17, cis-N-{5-[2-((1,1’-Biphenyl)-4-yl)-4-methylthiazol-5-yl]-1,3,4-oxadiazol-2-yl}cyclo-hexane-1,2-diamine]
MIC (MRSA USA300): > 64 µg/mL | MIC [1]: 64 µg/mL (≈ 148 µM) | MIC [2]: > 64 µg/mL | MIC [3]: > 64 µg/mL | MIC [4]: 128 µg/mL (≈ 297 µM) | MIC [5]: > 128 µg/mL | MIC [6]: 128 µg/mL (≈ 297 µM) | MIC (Cryptococcus neoformans; C. neoformans NR 41298): 1 µg/mL (≈ 2.32 µM) | MIC (Cryptococcus neoformans; C. neoformans NR 41300): 1 µg/mL (≈ 2.32 µM) | MIC (Cryptococcus neoformans; C. neoformans NR 48770): 1 µg/mL (≈ 2.32 µM) | MIC (Aspergillus fumigatus; A. fumigatus NR 35303, read-out: MIC): 4 µg/mL (≈ 9.27 µM) | MIC (Aspergillus fumigatus; A. fumigatus NR 35304, read-out: MIC): 4 µg/mL (≈ 9.27 µM) | MIC (Aspergillus fumigatus; tested A. fumigatus isolates (Table 5), read-out: MIC against Aspergillus fumigatus): 4 µg/mL (≈ 9.27 µM) | MIC (Candida parapsilosis; ATCC22019, C. parapsilosis ATCC 22019): 1 µg/mL (≈ 2.32 µM) | MIC (Candida parapsilosis; C. parapsilosis CAB 502638): 1 µg/mL (≈ 2.32 µM) | fungistatic or fungicidal activity (Candida strains): fungistatic | concentration up to which non-toxic [7]: ≤ 64 µg/mL | concentration up to which non-toxic ([8]; Vero, 24 h exposure, MTS): ≤ 64 µg/mL | times more tolerable than amphotericin B ([8]; relative to amphotericin B): 16 times | MIC Combined, 17 (Candida auris; Candida auris 381, compound 17 in combination with 5-Fluorocytosine): 0.25 µg/mL | MIC Combined, 17 (Candida auris; Candida auris 381, compound 17 in combination with Amphotericin B): 0.25 µg/mL | MIC Combined, 17 (Candida auris; Candida auris 381, compound 17 in combination with Caspofungin): 0.25 µg/mL | MIC Combined, 17 (Candida auris; Candida auris 381, compound 17 in combination with Fluconazole): 0.25 µg/mL | MIC Combined, 17 (Candida auris; Candida auris 385, compound 17 in combination with 5-Fluorocytosine): 0.25 µg/mL | MIC Combined, 17 (Candida auris; Candida auris 385, compound 17 in combination with Amphotericin B): 0.25 µg/mL | MIC Combined, 17 (Candida auris; Candida auris 385, compound 17 in combination with Caspofungin): 0.25 µg/mL | MIC Combined, 17 (Candida auris; Candida auris 385, compound 17 in combination with Fluconazole): 2 µg/mL | MIC (Candida auris; Candida auris 381 (azole-sensitive)): 1 µg/mL | MIC (Candida auris; Candida auris 385 (azole-resistant)): 2 µg/mL | relationship when combined with antifungals (Candida auris; combined with either fluconazole, 5-fluorocytosine or caspofungin, two tested C. auris isolates): additive | melting point: 145 to 146 °C
